Molecules are shown by their SMILES. The source made the active and inactive calls. The rule behind the calls is not given here. A value given as a limit tells only on which side of the number the result lay.

The target in the assay is Gag-Pol polyprotein (Human immunodeficiency virus type 2 subtype A (isolate ROD)) (UniProt P04584). Description: Reverse transcriptase ribonuclease H inhibitors, biochemical concentration-response (AID 367). To be noted: HIV-2 RNase H, FRET RNA/DNA substrate cleavage.
Chain of Gag-Pol polyprotein (Human immunodeficiency virus type 2 subtype A (isolate ROD)) (P04584 whole entry, looked up): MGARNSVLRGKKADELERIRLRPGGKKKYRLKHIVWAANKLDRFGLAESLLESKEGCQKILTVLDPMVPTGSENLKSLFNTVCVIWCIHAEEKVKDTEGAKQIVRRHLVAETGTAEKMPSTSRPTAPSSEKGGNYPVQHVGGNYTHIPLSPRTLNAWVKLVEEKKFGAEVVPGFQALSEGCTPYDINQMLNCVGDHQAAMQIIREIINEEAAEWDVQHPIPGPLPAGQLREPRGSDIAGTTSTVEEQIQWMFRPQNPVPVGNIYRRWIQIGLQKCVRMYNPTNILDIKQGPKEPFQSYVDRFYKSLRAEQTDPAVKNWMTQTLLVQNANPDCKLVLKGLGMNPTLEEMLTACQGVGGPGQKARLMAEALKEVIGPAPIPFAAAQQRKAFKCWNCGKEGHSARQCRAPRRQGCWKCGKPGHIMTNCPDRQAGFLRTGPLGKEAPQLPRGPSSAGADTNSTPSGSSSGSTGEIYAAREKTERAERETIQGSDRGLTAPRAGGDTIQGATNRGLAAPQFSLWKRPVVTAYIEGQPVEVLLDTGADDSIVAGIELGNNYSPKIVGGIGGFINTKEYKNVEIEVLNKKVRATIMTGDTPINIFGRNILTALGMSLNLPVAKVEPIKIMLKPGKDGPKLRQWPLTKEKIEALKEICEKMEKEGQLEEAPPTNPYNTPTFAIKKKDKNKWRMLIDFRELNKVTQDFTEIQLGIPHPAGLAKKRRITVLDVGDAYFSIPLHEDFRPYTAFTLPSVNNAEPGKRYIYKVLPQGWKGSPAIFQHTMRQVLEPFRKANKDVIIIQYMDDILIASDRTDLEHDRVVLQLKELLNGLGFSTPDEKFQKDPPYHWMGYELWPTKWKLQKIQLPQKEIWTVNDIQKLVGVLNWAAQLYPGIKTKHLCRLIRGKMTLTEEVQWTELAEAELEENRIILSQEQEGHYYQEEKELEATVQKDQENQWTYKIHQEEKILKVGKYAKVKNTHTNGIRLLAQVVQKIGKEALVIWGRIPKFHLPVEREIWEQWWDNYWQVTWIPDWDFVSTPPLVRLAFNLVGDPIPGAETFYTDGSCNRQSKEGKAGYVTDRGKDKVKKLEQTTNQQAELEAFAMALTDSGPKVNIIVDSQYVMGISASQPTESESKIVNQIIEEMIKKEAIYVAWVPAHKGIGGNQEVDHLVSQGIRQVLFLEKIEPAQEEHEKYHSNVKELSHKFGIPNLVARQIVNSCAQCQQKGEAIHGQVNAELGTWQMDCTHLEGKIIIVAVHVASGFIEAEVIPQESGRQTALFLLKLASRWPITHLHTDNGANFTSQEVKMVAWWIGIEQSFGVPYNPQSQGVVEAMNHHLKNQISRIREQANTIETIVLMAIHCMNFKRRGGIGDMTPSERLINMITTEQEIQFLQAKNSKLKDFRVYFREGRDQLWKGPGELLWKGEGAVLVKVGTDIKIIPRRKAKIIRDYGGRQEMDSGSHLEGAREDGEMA
For orientation: IC50 means the midpoint of a concentration-inhibition curve. On to `FC(F)(F)c1nc2ccc(SSc3ccc4nc(C(F)(F)F)[nH]c4c3)cc2[nH]1`, for which the IC50 is 600 nM.
With `O=C(O)/C=C/c1c2ccc(=O)c(O)c-2oc2c(O)c(O)ccc12`, the IC50 is 500 nM.
Under `COC([CH2][Hg][n]1cnc2c1c(=O)n(C)c(=O)n2C)CN1C(=O)c2ccccc2S1(=O)=O` (stereo unspecified) stands 900 nM; under `Cc1ccc(C=C2C(=O)NC(=S)N(c3ccccc3Cl)C2=O)o1`, “inactive”.
For the molecule `O=C(NC(=S)Nc1cc(-c2nc3ccccc3s2)ccc1Cl)c1ccc(F)cc1`, the half-inhibitory concentration (IC50) was 9100 nM.
Under `CN1CC(O)C2=CC(=O)C(=O)C=C21` (stereo unspecified) stands 4000 nM; under `Cc1ccc(C)n1-c1ccc(SCC(=O)O)cc1`, 2000 nM; under `O=[N+]([O-])c1ccc2c(N=Nc3ccc4ccccc4c3O)c(O)cc(S(=O)(=O)O)c2c1`, 2200 nM.
As for `Cc1ccc(C)n1-c1ccc(Br)cc1C(=O)O`, the IC50 result is “inactive”.
On to `O=C1C=C(NCCc2cc(Br)c(O)c(Br)c2)C(=O)c2ncccc21`, for which the IC50 was 1700 nM.
Under `CC1=c2c(oc3cc(O)c(Nc4c(C)cc(O)cc4O)c(C)c23)=CC(=O)C1=Nc1c(C)cc(O)cc1O` stands 2000 nM; under `C[C@@H]1[C@H](O)c2c(c3c(c4c(-c5ccccc5)cc(=O)oc24)OC(C)(C)C=C3)O[C@@H]1C`, “inactive”.
In the case of `O=C1c2ccccc2C(=O)c2c1cc(O)c(O)c2O` it was 400 nM; in that of `Oc1cc(CN2COc3ccccc32)c(O)cc1CNC1CCCCC1`, 2900 nM.
For `Cc1ccc(C2COc3cc(O)c(O)cc3C2)cc1` (stereo unspecified), the IC50 is 600 nM.
With `CC(C)c1cccc(O)c(=O)c1`, the IC50 was > 100000 nM (inactive).
In the case of `O=C1/C(=C/c2ccc(O)c(O)c2)SC(=S)N1C1CCCCC1` it was 9100 nM.
Turning to `CC(C)c1ccc(O)c(=O)cc1`, the IC50 result is “inactive”.
With `O=C1NC(=S)N(c2ccccc2F)C(=O)/C1=C/c1ccc(OCc2cccc(C(=O)O)c2)cc1`, the IC50 is 9000 nM.
On to `Cc1sc(NC(=O)C2CC3CCC2C3)c(C(N)=O)c1C` (stereo unspecified), for which the IC50 result is “inactive”.
Consider `CCCc1cc(=O)oc2c3c(c4c(c12)OC(C)(C)C=C4)O[C@@H](C)[C@H](C)[C@@H]3F`, for which the IC50 entry was “inactive”.
Take `Oc1ccc(/C=N/Nc2nncc(-c3ccccc3)n2)c(O)c1O`: the IC50 is 1100 nM.
In the case of `COC(=O)c1c(N)sc(C(=O)Nc2ccc(OC)cc2)c1C` it was 4300 nM; in that of `Cc1cc(-c2ccc(C=C3C(=O)NC(=S)NC3=O)o2)c([N+](=O)[O-])cc1C`, 7000 nM.
In the case of `Cc1cc(C(=O)O)ccc1-n1c(C)ccc1C`, the IC50 result was “inactive”.
`O=C1C=CC(=O)c2c(O)cccc21`: the IC50 is 3100 nM.
For `COC(=O)c1cc2cc3cc4cc(CC(=O)O)c(C(=O)/C=C(\O)c5ccccc5O)c(OC)c4c(OC)c3c(O)c2c(=O)o1`, the IC50 is 8600 nM.
For `C[C@]12CC[C@H]3[C@@H](CCC4=CC(=O)CC[C@@]43C)[C@@H]1CC[C@@H]2C(=O)COS(=O)(=O)c1ccc(Br)cc1`, the IC50 was 7100 nM.
In the case of `Cc1ccc(C(=O)Nc2sc(C)c(C)c2C(N)=O)cc1` it was 800 nM; in that of `COc1ccc(/C=C\C(=O)c2c(-c3ccccc3)c3cc(C)ccc3[nH]c2=O)c(OC)c1`, “inactive”; in that of `CC1C2C=CC1C(c1c3ccc(=O)c(O)c-3oc3c(O)c(O)ccc13)C2C(=O)O` (stereo unspecified), 500 nM.
As for `O=C1c2cc([N+](=O)[O-])ccc2-c2ccc3c4ccc5c6c(ccc(c7ccc1c2c73)c64)C(=O)c1cc([N+](=O)[O-])ccc1-5`, the IC50 was 4000 nM.
With `O=C1C=CC(=O)C(c2cccc(Cl)c2)=C1`, the IC50 was 1100 nM.
In the case of `O=C1/C(=C/c2ccc(O)c(O)c2)SC(=S)N1c1ccc(O)cc1`, the IC50 is 2600 nM.
Turning to `C=C(C)[C@@H]1CCc2c(O)c(O)c(=O)cc(C)c2C1`, the IC50 is 1700 nM.
Under `O=C1c2ccccc2C(=O)N1c1ccc(-c2nc3ccc(N4C(=O)c5ccccc5C4=O)cc3[nH]2)cc1` stands 1700 nM; under `NC(=O)c1c(N)sc2c1CCCCC2`, 2500 nM; under `CCN1C(=O)/C(=C/c2ccoc2)C(=O)NC1=S`, “inactive”.
Turning to `C=CCn1c(N)c(-c2nc3ccccc3[nH]2)sc1=S`, the IC50 was 3900 nM.
Consider `CC1=C(CCC(=O)O)c2cc3nc(cc4[nH]c(cc5[nH]c(cc1n2)c(C)c5C(C)O)c(C)c4C(C)O)C(C)=C3CCC(=O)O` (stereo unspecified), for which the IC50 was 1700 nM.
Regarding `O=C1NN(c2ccc(I)cc2)C(=O)/C1=C\c1ccc(O)c(O)c1`, the IC50 was 4100 nM.
For the molecule `COc1ccc(-c2c(C#N)c(N)nc(SCC(=O)c3ccc(O)c(O)c3)c2C#N)cc1`, the IC50 is 700 nM.
In the case of `O=C(Nc1sc2c(c1C(=O)Nc1cccc3ccccc13)CCCCC2)c1ccccc1F` it was “inactive”; in that of `Cc1onc(-c2ccccc2)c1C(=O)Nc1sc(C)c(C)c1C(N)=O`, “inactive”; in that of `C=Cc1c(C)c2cc3[nH]c(cc4nc(cc5nc(cc1[nH]2)C(C)=C5CCC(=O)O)C(CCC(=O)O)=C4C)c(C)c3C=C`, 1700 nM.
Under `O=C(O)C1Nc2c(Cl)cc(Cl)cc2C2C=CCC12` (stereo unspecified) stands “inactive”; under `O=C1C(Cl)=CC(=NS(=O)(=O)c2ccccc2)C=C1Cl`, 1000 nM; under `CC(=O)/C=C/C=C/c1ccc2c(c1)OC(CO)C(c1ccc(O)c(O)c1)O2` (stereo unspecified), “inactive”.
As for `Cc1ccccc1-n1c(O)c(C=C2C=CC=N2)c(=O)[nH]c1=S`, the IC50 result is “inactive”.
On to `N#Cc1c(N)nc(SCC(=O)c2ccc(O)c(O)c2)c(C#N)c1-c1ccc(O)cc1`, for which the IC50 is 430 nM.
Turning to `CN(C)CS/C(N)=N/C(O)C(Cl)(Cl)Cl` (stereo unspecified), the IC50 is 6000 nM.
Take `Cc1ccc(C(=O)NC(=S)Nc2ccc(-c3nc4ccccc4s3)cc2)cc1[N+](=O)[O-]`: the IC50 entry was “inactive”.
In the case of `CCOc1ccc(N2C(=O)/C(=C/c3ccc(Br)o3)C(=O)NC2=S)cc1` it was 900 nM; in that of `COC(=O)c1cc2c3c(ccc2[nH]1)N(C(=O)c1cc2c4c(ccc2[nH]1)N(C(=O)c1cc2c5c(ccc2[nH]1)N(C(N)=O)CC5)CC4)CC3`, 8100 nM; in that of `O=C1NC(=S)N(c2ccc(Cl)cc2)C(=O)/C1=C\C=C\c1ccccc1[N+](=O)[O-]`, 8000 nM.
For `CCCCCCCCCCCCCCCCCCOCC(O)CO` (stereo unspecified), the IC50 was > 100000 nM (inactive).
As for `C[C@H]1[C@H](O)c2c(c3c(c4c(-c5ccccc5)cc(=O)oc24)OC(C)(C)C=C3)O[C@@H]1C`, the IC50 entry is “inactive”.
Under `Cc1cc(I)c2c(c1)C1C=CCC1C(C(=O)O)N2` (stereo unspecified) stands > 100000 nM (inactive); under `O=S(=O)(Nc1cccc(C(F)(F)F)c1)c1ccc2ccccc2c1`, “inactive”; under `Cc1sc(NC(=O)c2ccc3c(c2)OCO3)c(C(N)=O)c1C`, 10000 nM.
`O=C(N/N=C/c1ccc(/C=N/NC(=O)c2ccc(O)c(O)c2)cc1)c1ccc(O)c(O)c1`: the IC50 was 3800 nM.
On to `Cc1ccc(S(=O)(=O)/N=C2\C=CC(=O)C=C2Cl)cc1`, for which the IC50 was 2100 nM.
Under `CCCc1cc(=O)oc2c3c(c4c(c12)OC(C)(C)C=C4)O[C@H](C)[C@@H](C)[C@H]3OC` stands “inactive”; under `O=C1/C(=C/c2ccco2)C(=O)N(c2ccc(Br)cc2)C(=S)N1c1ccccc1`, “inactive”.
`Nc1nc(Sc2ccc([N+](=O)[O-])c3nonc23)c2[nH]cnc2n1`: the IC50 entry is “inactive”.
In the case of `COc1cc(/C=N\c2sc3c(c2C(=O)NCc2ccccc2)CCCC3)cc(Cl)c1O` it was 2800 nM; in that of `Nc1c(S(=O)(=O)O)cc(Nc2cccc(S(N)(=O)=O)c2)c2c1C(=O)c1ccccc1C2=O`, 4000 nM; in that of `Nc1ccc(S(=O)(=O)O)c2cccc(O)c12`, “inactive”.
Turning to `CCOc1ccc(C2=CC(=O)C=CC2=O)cc1`, the IC50 is 700 nM.
For the molecule `Cc1cc(C)c2c(=O)[nH]c(SCC(=O)c3ccc(O)c(O)c3)nc2n1`, the concentration for half-maximal inhibition (IC50) is 3000 nM.
Take `CC(C)OC(=O)c1cc(O)c(O)c(O)c1`: the concentration for half-maximal inhibition (IC50) was 8000 nM.
Under `CCOc1ccc(C(=O)Nc2ccc3c(c2)C(=O)c2ccccc2C3=O)cc1` stands 4300 nM; under `Cc1cc(-c2ccco2)c(C#N)c(SCC(=O)c2ccc(O)c(O)c2)n1`, 800 nM.
As to `O=C1CC(=O)c2ccc3c4c(ccc1c24)C(=O)CC3=O`, the IC50 was 3800 nM.
With `Cc1ccc(NC(=O)c2c(NC(=O)C(F)(F)F)sc(-c3ccccc3)c2C)c(C)c1`, the IC50 is 2000 nM.
Take `C=CCN1C(=O)/C(=C\c2ccc([N+](=O)[O-])o2)C(=O)NC1=S`: the IC50 entry was “inactive”.
Take `Cc1ccc(NC(=O)c2c(NC(=O)c3ccccc3F)sc3c2CCCCC3)cc1`: the half-maximal inhibitory concentration (IC50) was 5000 nM.
For the molecule `O=C1Nc2ccc(I)cc2C1(O)N1CCOCC1` (stereo unspecified), the IC50 is 6300 nM.
In the case of `O=C1C=C/C(=N\S(=O)(=O)c2cc(Cl)ccc2Cl)C=C1Cl`, the IC50 is 2000 nM.
As to `COc1ccccc1N=C(NOCc1ccc(Cl)cc1Cl)c1nonc1N`, the IC50 entry was “inactive”.
In the case of `O=c1c(O)c(-c2ccc(O)c(O)c2)oc2cc(O)cc(O)c12` it was 9000 nM.
Consider `O=C1NC(=S)N(c2ccc(Cl)cc2)C(=O)/C1=C/c1ccco1`, for which the IC50 entry is “inactive”.
`O=C1C=CC2=C3c4cc(O)c(O)cc4CC3(O)COC2=C1O` (stereo unspecified): the IC50 was 1700 nM.
`O=[N+]([O-])c1c(Cl)cccc1-c1c[nH]cc1Cl`: the IC50 was > 100000 nM (inactive).
On to `CC1Oc2cc3c(-c4c(O)cc(O)c5c(O)c6c(cc45)OC(C)C(C)C6=O)c(O)cc(O)c3c(O)c2C(=O)C1C` (stereo unspecified), for which the IC50 was 8200 nM.
As to `Cc1ccc(-c2c(C#N)c(SCC(=O)c3ccc(O)c(O)c3)nc3c2CCCC3)o1`, the 50% inhibitory concentration (IC50) is 1500 nM.
`Cc1sc(NC(=O)c2ccc(Br)o2)c(C(N)=O)c1C`: the 50% inhibitory concentration (IC50) was 7000 nM.
On to `CC(=O)C1=C(O)[C@@]2(O)C(=O)c3c(c(C)c4ccc(C)c(O)c4c3O)C[C@H]2[C@@H](N)C1=O`, for which the IC50 is 4400 nM.
`CCCCCCCCCCCCCCCC(=O)OCC1OC(n2ccc(N)nc2=O)C(O)C1O` (stereo unspecified): the IC50 result is “inactive”.
Turning to `COc1ccc2oc(=O)c(-c3csc(Nc4ccc(Br)cc4)n3)cc2c1`, the IC50 is 9800 nM.
In the case of `N#C/C(=C\Nc1ccc(S(=O)(=O)Nc2nccs2)cc1)c1nc(-c2ccc(Cl)cc2)cs1` it was 4100 nM.

The values are drawn from PubChem BioAssay AID367 (MTDP, 2006).
